Results from patent publication US20030185878A1, “Process for producing phospholipid-containing drug” (priority 2002, published 2003).

`Cc1cccc(Oc2sc(C(N)=O)c3c2-c2c(cnn2CC(F)(F)F)CC3)c1C` [compound 9, 4,5-Dihydro-8-(2,3-dimethylphenoxy)-1-(2,2,2-trifluoroethyl)-1H-thieno[3,4-g]indazole-6-carboxamide] showed a melting point of 190 to 191 °C. Compound `Cn1ncc2c1-c1c(Oc3ccc(OC(F)(F)F)cc3)sc(C(N)=O)c1CC2` [compound 7, 4,5-Dihydro-1-methyl-8-(4-trifluoromethoxyphenoxy)-1H-thieno[3,4-g]indazole-6-carboxamide] has a melting point of 212 to 213 °C. For `Cn1ncc2c1-c1c(Oc3ccc(OCc4ccccc4)cc3)sc(C(N)=O)c1CC2` [compound 5, 8-(4-Benzyloxyphenoxy)-4,5-dihydro-1-methyl-1H-thieno[3,4-g]indazole-6-carboxamide], the melting point was 200 to 201 °C. `COc1ccc(Oc2sc(C(N)=O)c3c2-c2c(cnn2C)CC3)cc1` [compound 6, 4,5-Dihydro-1-methyl-8-(4-methoxyphenoxy)-1H-thieno[3,4-g]indazole-6-carboxamide] gave a melting point of 203 to 205 °C. `Cn1ncc2c1-c1c(Oc3ccc(F)cc3)sc(C(N)=O)c1CC2` [compound 15, 4,5-Dihydro-1-methyl-8-(4-fluorophenoxy)-1H-thieno[3,4-g]indazole-6-carboxamide] showed a melting point of 188 to 189 °C. `Cn1ncc2c1-c1c(Oc3ccc4c(c3)OCO4)sc(C(N)=O)c1CC2` [Reference Example 4, 4,5-Dihydro-1-methyl-8-(3,4-methylenedioxyphenoxy)-1H-thieno[3,4-g]indazole-6-carboxamide] gave a melting point of 204 to 205 °C. `Cn1ncc2c1-c1c(Oc3ccc(OCc4ccncc4)cc3)sc(C(N)=O)c1CC2` [compound 14, 4,5-Dihydro-1-methyl-8-[4-(4-pyridylmethyloxy)phenoxy]-1H-thieno[3,4-g]indazole-6-carboxamide] gave a melting point of 249 to 250 °C.
